The test system of this test is rat spinal cord injured OAB model. Put plainly: Urodynamic study (cystometry) in rat spinal cord injured OAB model. The test is classed as in vivo. The following applies: conscious female rats with spinal cord transection at Th10, intravenous injection 0.1 mg/kg. As for the experimental part: Efficacy on Urodynamic Study in Rat Spinal Cord Injured OAB Model
In ether anesthetized female rats, spinal cord transection was performed at the level of Th10. About 1 month after the spinal cord transection, each rat was anesthetized with pentobarbital and a catheter filled with saline was implanted into the urinary bladder, ligated, secured on the back of the neck and closed. Seven days after the bladder catheter implantation, another catheter filled with heparin-containing saline was implanted into the […], and ligated, secured on the back of the neck and closed. The next day, cystometry was performed in the conscious rat under free moving. Saline was instilled into the urinary bladder at a rate of 12 mL/hr. A drug was injected through the […] catheter that was secured on the back of the neck. […] Intravenous injection of compound 1 (0.1 mg/kg) prolonged the micturition interval by about 20% (FIG. 1) and decreased the frequency of involuntary contraction in filling phase by 20% (FIG. 2) in the same model.

`C[C@H](Cc1cc2c(c(C(N)=O)c1)N(CCCO)CC2)NCCOc1ccccc1OCC(F)(F)F` [compound 1, (−)-1-(3-hydroxypropyl)-5-((2R)-2-{[2-({2-[(2,2,2-trifluoroethyl)oxy]phenyl}oxy)ethyl]amino}propyl)-2,3-dihydro-1H-indol-7-yl-carboxamide]: the “prolongation of the micturition interval” value (versus value before drug administration (FIG. 1)) is reported as “about 20%”. Also, where the note is “versus value before drug administration (FIG. 2)”, the “decrease of the frequency of involuntary contraction in filling phase” value was determined as 20%.
